{
  "source": "paper PMC8280143",
  "about": "“A novel dephosphorylation targeting chimera selectively promoting tau removal in tauopathies” (Signal Transduction and Targeted Therapy, 2021)",
  "key": {"tau and PP2A-B": {"test_system": "tau and PP2A-B", "test": "Co-immunoprecipitation of DEPTAC with tau and PP2A-B in primary neurons", "format": "cell-based", "settings": "primary cultured rat neurons", "protocol": "(§1) Primary hippocampal neurons were prepared from E12–E15 days SD rat embryos. Briefly, pregnant rats were acutely executed, hippocampus was dissected on ice and gently minced in DME/F12 (Hyclone) then suspended in 0.125% (vol/vol) trypsin solution at 37 °C for 20 min. Enzymatic activity was stopped by fetal bovine serum. Neurons were initially kept in 10% FBS-containing DME/F12 for 4–6 h, and subsequently cultured in Neurobasal (Hyclone) with 2% B27, 1% glutamax and 1% penicillin–streptomycin (Thermo Fisher Scientific) in dishes pre-coated with 100 μg/mL poly-D-lysine. Serum was gradually removed by replacing half of the medium for each time within the following 2 days. Especially, to inhibit the proteasome-dependent proteolysis, the cultured hippocampal neurons were treated with 5 μM MG132 for 5 h before harvest.\nFor co-immunoprecipitation, cultured cells were lysed on ice with RIPA buffer for 10 min containing 1:100 PMSF. Protein samples were incubated with protein G agarose (Beyotime) at 4 °C for 2 h, and then centrifuged for 5 min (4 °C, 12,000 rpm). Supernatants were subsequently incubated with specified antibodies and protein G agarose overnight at 4 °C. […] Immunoprecipitants were subsequently analyzed through Western blotting."}, "tau": {"test_system": "tau", "test": "Tau Ser/Thr phosphorylation and ubiquitination in the presence of MG132", "format": "cell-based, rat", "protocol": "as §1, with “Especially, to inhibit the proteasome-dependent proteolysis, the cultured hippocampal neurons were treated with 5 μM MG132 for 5 h before harvest.” left out\nCultured cells or hippocampus tissues were collected on ice, and homogenized with RIPA lysis buffer containing 50 mM Tris-HCl, 100 mM NaCl, 1% Triton X-100, 5 mM EDTA, and 1:100 PMSF, and then centrifuged at 12,000 × g for 20 min. […] Protein concentration was measured through BCA assays (Thermo Fisher). […] Blots were visualized using ECL luminol reagent (P0018FS, Beyotime), and quantified using ImageJ software.\nFor co-immunoprecipitation, cultured cells were lysed on ice with RIPA buffer for 10 min containing 1:100 PMSF. […] Immunoprecipitants were subsequently analyzed through Western blotting."}, "tau aggregation": {"test_system": "tau aggregation", "test": "Thioflavin T staining of tau aggregation in the DG of Tau368 mice", "format": "in vivo, mouse", "settings": "DEPTAC for a consecutive month after stopping dox; **p < 0.01, n = 4–5 mice", "protocol": "(§2) For 2-month male C57BL/6 mice, 10 mM FITC-labeled or unlabeled-DEPTAC were directly injected through the tail vein or lateral ventricle for the evaluation of BBB-penetrability. For 9-month 3×Tg AD mice or Tau368 (20–30 g body weight), unlabeled-DEPTAC (5 mM, 1 μL for each time) was delivered for once into the lateral ventricle through direct stereotaxic injection, or repeatedly administrated through guiding cannulas (RWD, Shenzhen, China) implanted into the lateral ventricle once every 3 days for a consecutive month to test its dephosphorylation efficiency. Mice were restricted in a custom designed device and stayed awake during drug administration, and sacrificed at 24 h post the single or last DEPTAC administration.\nFree-floating brain sections were washed with Tris-buffered saline (TBS) for 3 × 5 min, and then incubated with 0.3% Thioflavin T (Sigma) dissolved in 50% ethanol at room temperature for 10 min. The sections were then decolorized in 50% ethanol for 3 × 5 min, washed in TBS, and subsequently co-stained with DAPI for 10 min."}, "[1]": {"test_system": "dentate granular cells of Tau368 mice", "test": "Sparse labeling: dendritic spine density and mossy fiber puncta area", "format": "in vivo, mouse", "protocol": "as §2\nA total volume of 0.3 μL mixture of AAV-CaMKIIα-Cre (5.21E+07) and AAV-EF1α-DIO-mCherry (3.24E+12) (1:1 vol/vol) was stereotaxically injected into the dDG of Tau368 mice 1 month following the beginning of dox or normal drinking water administration. Dox was stopped 1-month post AAVs injection, and DEPTAC were delivered through lateral ventricle for a consecutive month. Behavioral tests were performed after the DEPTAC administration, and mice were killed after behavioral tests. Hippocampal sections of 60 μm were obtained, and fluorescent images were taken by a two-photon laser-scanning confocal microscope (LSM710, Zeiss). The dendrite complexity of granular cells in the dorsal dentate gyrus was evaluated by Sholl analysis using Simple Neurite Tracer plugin and ImageJ (Fiji) software. Dendrite spine density and the averaged area of mossy fiber punctas were evaluated using ImageJ by an experimenter blinded from mice groupings. It should be noted that the fluorescence-labeled mossy fibers assembled densely in the CA3 subset, the main target area of mossy fiber axon terminals, making it difficult to accurately measure the puncta areas (data not shown). Therefore, we chose the hilus of DG subset for the measurement, which we believe should be also valid to indicate the axon plasticity of DG granular cells."}, "Tau368 mice": {"test_system": "Tau368 mice", "test": "Object-place recognition test", "format": "in vivo, mouse", "protocol": "Mice were repeatedly handled during DEPTAC administration before behavioral tests. For object-place recognition in the […], mice were placed in a box (50 × 50 × 50 cm) marked with a visual cue on the wall, and two identical objects (plastic toys) were placed at the two different corners. Each mouse was allowed to freely explore for 5 min, and then removed from the box for 2 min, during which the box and the objects were cleaned with 75% ethanol. Pseudorandomly, one of the two objects (object B) was moved to a new corner while the other object (object A) remained unmoved. In the test phase, mice were allowed to freely explore in the box for another 5 min. Videos were recorded and analyzed online using an ANY-maze video tracking system (Stoelting). The time mice stayed around each object was counted as exploring; and the preference ratio was calculated as the exploring time (B − A) / (B + A)."}, "[2]": {"settings": "Tau368 mice without dox, n = 3 mice"}, "[3]": {"settings": "dox-treated Tau368 mice, DEPTAC 1 month after stopping dox, *p < 0.05, n = 5 mice"}},
  "note": "Entries after “also recorded” stand apart in the source; their conditions may differ.",
  "data": [
    {"substance": "(1) YQQYQDATADEQG, originates from the porcine β-tubulin 422–434 for recognizing and binding tau proteins.[5],[6] (2) GSGS, a linker for increasing the flexibility of the peptide.[15] (3) KKVAVVRTPPKSP, for recruiting PP2A-Bα,[16] and (4) RRRRRRRR [DEPTAC, DEPhosphorylation TArgeting Chimera; 38 amino acid residues, C185H314N72O56]", "values": [
      {"measurement": "total tau level over time", "setting": "tau and PP2A-B; 6–24 h of post-DEPTAC treatment", "result": "time-dependent decrease; also recorded: gradual decrease"},
      {"measurement": "co-immunoprecipitation of DEPTAC with tau and PP2A-B", "setting": "tau and PP2A-B; DEPTAC antibody, 24 h / 12 h (b9)", "result": "detected; also recorded: confirmed"},
      {"measurement": "tau phosphorylation at Ser/Thr residues", "setting": "tau", "result": "downregulation; also recorded: decreased"},
      {"measurement": "tau ubiquitination", "setting": "tau", "result": "upregulation; also recorded: upregulated"},
      {"measurement": "thioflavin T (ThT)-stained tau aggregation in the DG", "setting": "tau aggregation", "result": "ameliorated"},
      {"measurement": "averaged mossy fiber puncta area, without dox", "setting": "[1]; [2]", "result": "only limited effects"},
      {"measurement": "dendritic spine density, without dox", "setting": "[1]; [2]", "result": "only limited effects"},
      {"measurement": "averaged area of mossy fiber puncta", "setting": "[1]; [3]", "result": "increased; also recorded: enlarged"},
      {"measurement": "mushroom-like dendritic spine density", "setting": "[1]; [3]", "result": "significantly increased"},
      {"measurement": "total dendritic spine density", "setting": "[1]; [3]", "result": "significantly increased"},
      {"measurement": "object-place recognition in control mice", "setting": "Tau368 mice; Tau368 mice treated with NW", "result": "only limitedly affected"},
      {"measurement": "object-place recognition impairment", "setting": "Tau368 mice; dox-treated Tau368 mice, 1-month DEPTAC after stopping dox, *p < 0.05, n = 10–15 mice", "result": "remarkably ameliorated; also recorded: rescued"}
    ]}
  ]
}
